Experimental data reported in US20240158446A1, “CYCLIC COMPOUND HAVING SELECTIVE INHIBITORY ACTION ON KRAS OVER HRAS AND NRAS” (CHUGAI SEIYAKU KABUSHIKI KAISHA, priority 2021, published 2024).
pKd: −log10 of the molar value. *1 amine or outer side, *2 acyl side, *3 side chain or, on linkers, in order; H or OH if unused. Where a SMILES comes first, the peptide text is derived from it. Bridges are numbered along the chain shown (N, C = ends). [ ]: non-standard residue; d: D form. The star is where a group is joined. hPhe(3-Cl-4-CF3) = N[C@@H](CCc1ccc(C(F)(F)F)c(Cl)c1)C(=O)O; X45 = O=C([C@H](Cc1ccc(C(F)(F)F)cc1)N(CCCF)[*:1])[*:2]; X19 = CCCN([C@@H](CC1CCC(F)(F)CC1)C(=O)[*:2])[*:1]; NMeGly(cPent) = CN[C@H](C(=O)O)C1CCCC1; NMeD = CN[C@@H](CC(=O)O)C(=O)O; NMeL = CN[C@@H](CC(C)C)C(=O)O; Morpholide = C1CN(*)CCO1; NMeA = CN[C@@H](C)C(=O)O; Ac5c = NC1(C(=O)O)CCCC1; Aze = O=C(O)[C@@H]1CCN1; Sar = CNCC(=O)O

What was measured:
[1] = molecular target: GDP-bound KRAS wild-type protein (Homo sapiens, UniProt P01116); test: Binding to KRAS by surface plasmon resonance (SPR), Single Cycle Kinetics; details: SPR Single Cycle Kinetics, GDP-bound KRAS wild-type protein, 1:1 binding model; read-out: KRAS KD
Sequence of GDP-bound KRAS wild-type protein (P01116 whole entry): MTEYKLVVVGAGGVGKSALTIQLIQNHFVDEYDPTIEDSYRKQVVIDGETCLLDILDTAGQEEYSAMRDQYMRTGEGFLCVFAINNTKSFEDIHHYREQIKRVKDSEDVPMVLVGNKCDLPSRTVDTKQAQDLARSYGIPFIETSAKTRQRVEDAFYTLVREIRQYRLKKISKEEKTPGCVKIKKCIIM

[2] = molecular target: GDP-bound HRAS wild-type protein (Homo sapiens, UniProt P01112); test: Binding to HRAS by surface plasmon resonance (SPR), Single Cycle Kinetics; details: SPR, GDP-bound HRAS wild-type protein vs GDP-bound KRAS wild-type protein
Sequence of GDP-bound HRAS wild-type protein (P01112 whole entry): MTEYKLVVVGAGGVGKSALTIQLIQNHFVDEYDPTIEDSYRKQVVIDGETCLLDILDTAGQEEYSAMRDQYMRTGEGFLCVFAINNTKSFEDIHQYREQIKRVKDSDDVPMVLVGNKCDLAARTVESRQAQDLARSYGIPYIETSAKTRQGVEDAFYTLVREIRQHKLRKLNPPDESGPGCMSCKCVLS

[3] = molecular target: GDP-bound NRAS wild-type protein (Homo sapiens, UniProt P01111); test: Binding to NRAS by surface plasmon resonance (SPR), Single Cycle Kinetics; details: SPR, GDP-bound NRAS wild-type protein vs GDP-bound KRAS wild-type protein
Sequence of GDP-bound NRAS wild-type protein (P01111 whole entry): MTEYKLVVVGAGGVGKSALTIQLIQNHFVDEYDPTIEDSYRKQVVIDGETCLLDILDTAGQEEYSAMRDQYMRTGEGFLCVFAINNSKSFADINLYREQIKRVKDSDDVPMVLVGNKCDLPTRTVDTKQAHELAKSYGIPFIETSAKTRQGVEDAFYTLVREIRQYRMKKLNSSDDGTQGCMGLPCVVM

SMILES | pKd [1] | HRAS/KRAS (ratio of KD value with respect to HRAS to KD value with respect to KRAS) [2] | NRAS/KRAS (ratio of KD value with respect to NRAS to KD value with respect to KRAS) [3]
CC[C@H](C)[C@@H]1NC(=O)[C@H](CC(F)(F)F)N(C)C(=O)C[C@@H](C(=O)N2CCOCC2)N(C)C(=O)[C@H](C2CCCC2)N(C)C(=O)C2(CCCC2)NC(=O)[C@@H]2CCCN2C(=O)[C@H](CCc2cc(F)c(C(F)(F)F)c(F)c2)NC(=O)CN(C)C(=O)[C@H](Cc2ccc(C(F)(F)F)cc2)N2CCCCC[C@@H](C2=O)N(C)C(=O)CN(C)C1=O [PP0520] | 9.00 | B (a compound having 3 or more and less than 10 is denoted as B) | B (a compound having 3 or more and less than 10 is denoted as B)
CC[C@H](C)[C@@H]1NC(=O)[C@@H]2CCCCCN2C(=O)C[C@@H](C(=O)N2CCOCC2)N(C)C(=O)[C@H](C2CCCC2)N(C)C(=O)C2(CCCC2)NC(=O)[C@@H]2CCCN2C(=O)[C@H](CCc2cc(F)c(C(F)(F)F)c(F)c2)NC(=O)CN(C)C(=O)[C@H](Cc2ccc(C(F)(F)F)cc2)N2CCCCC[C@@H](C2=O)N(C)C(=O)CN(C)C1=O [PP0521] | 7.14 | B (a compound having 3 or more and less than 10 is denoted as B) | B (a compound having 3 or more and less than 10 is denoted as B)
CC(C)C[C@H]1C(=O)N[C@@H](C2CCC2)C(=O)N(C)CC(=O)N(C)[C@H]2CCCCCN(C2=O)[C@@H](Cc2ccc(C(F)(F)F)cc2)C(=O)N(C)CC(=O)N[C@@H](CCc2cc(F)c(C(F)(F)F)c(F)c2)C(=O)N2CCC[C@H]2C(=O)NC2(CCCC2)C(=O)N(C)[C@@H](C2CCCC2)C(=O)N(C)[C@H](C(=O)N2CCOCC2)CC(=O)N1C [PP0522] | 8.55 | B (a compound having 3 or more and less than 10 is denoted as B) | B (a compound having 3 or more and less than 10 is denoted as B)
CCC(CC)[C@@H]1NC(=O)[C@H](CC(C)C)N(C)C(=O)C[C@@H](C(=O)N2CCOCC2)N(C)C(=O)[C@H](C2CCCC2)N(C)C(=O)C2(CCCC2)NC(=O)[C@@H]2CCCN2C(=O)[C@H](CCc2cc(F)c(C(F)(F)F)c(F)c2)NC(=O)CN(C)C(=O)[C@H](Cc2ccc(C(F)(F)F)cc2)N2CCCCC[C@@H](C2=O)N(C)C(=O)CN(C)C1=O [PP0523] | 7.92 | B (a compound having 3 or more and less than 10 is denoted as B) | A (a compound having 10 or more and less than 20 is denoted as A)
CC[C@H](C)[C@@H]1NC(=O)[C@H](CC(C)C)N(C)C(=O)C[C@@H](C(=O)N2CCOCC2)N(C)C(=O)[C@H](C2CCCC2)N(C)C(=O)C2(CCCC2)NC(=O)[C@@H]2CCCN2C(=O)[C@H](CCc2ccc(C(F)(F)F)c(Cl)c2)NC(=O)CN(C)C(=O)[C@H](Cc2ccc(C(F)(F)F)cc2)N(CCCF)C(=O)CN(C)C(=O)CN(C)C1=O [PP0524] ([NMeL]I[Sar][Sar][X45][Sar][hPhe(3-Cl-4-CF3)]P[Ac5c][NMeGly(cPent)][NMeD]-Morpholide; lactam N-11) | 9.96 | C (A compound having a KD ratio of 0.1 or more and less than 3 is denoted as C) | B (a compound having 3 or more and less than 10 is denoted as B)
CC[C@H](C)[C@@H]1NC(=O)[C@H](CC(C)C)N(C)C(=O)C[C@@H](C(=O)N2CCOCC2)N(C)C(=O)[C@H](C2CCCC2)N(C)C(=O)C2(CCCC2)NC(=O)[C@@H]2CCCN2C(=O)[C@H](CCc2ccc(C(F)(F)F)c(Cl)c2)NC(=O)CN(C)C(=O)[C@H](Cc2ccc(C(F)(F)F)cc2)N(CCCF)C(=O)[C@@H]2CCN2C(=O)[C@H](C)N(C)C1=O [PP0525] ([NMeL]I[NMeA][Aze][X45][Sar][hPhe(3-Cl-4-CF3)]P[Ac5c][NMeGly(cPent)][NMeD]-Morpholide; lactam N-11) | 9.85 | B (a compound having 3 or more and less than 10 is denoted as B) | C (A compound having a KD ratio of 0.1 or more and less than 3 is denoted as C)
CCCN1C(=O)CN(C)C(=O)CN(C)C(=O)[C@H]([C@@H](C)CC)NC(=O)[C@H](CC(C)C)N(C)C(=O)C[C@@H](C(=O)N2CCOCC2)N(C)C(=O)[C@H](C2CCCC2)N(C)C(=O)C2(CCCC2)NC(=O)[C@@H]2CCCN2C(=O)[C@H](CCc2ccc(C(F)(F)F)c(Cl)c2)NC(=O)CN(C)C(=O)[C@@H]1CC1CCC(F)(F)CC1 [PP0526] ([NMeL]I[Sar][Sar][X19][Sar][hPhe(3-Cl-4-CF3)]P[Ac5c][NMeGly(cPent)][NMeD]-Morpholide; lactam N-11) | 10.13 | C (A compound having a KD ratio of 0.1 or more and less than 3 is denoted as C) | B (a compound having 3 or more and less than 10 is denoted as B)
CCCN1C(=O)[C@@H]2CCN2C(=O)[C@H](C)N(C)C(=O)[C@H]([C@@H](C)CC)NC(=O)[C@H](CC(C)C)N(C)C(=O)C[C@@H](C(=O)N2CCOCC2)N(C)C(=O)[C@H](C2CCCC2)N(C)C(=O)C2(CCCC2)NC(=O)[C@@H]2CCCN2C(=O)[C@H](CCc2ccc(C(F)(F)F)c(Cl)c2)NC(=O)CN(C)C(=O)[C@@H]1CC1CCC(F)(F)CC1 [PP0527] ([NMeL]I[NMeA][Aze][X19][Sar][hPhe(3-Cl-4-CF3)]P[Ac5c][NMeGly(cPent)][NMeD]-Morpholide; lactam N-11) | 9.68 | C (A compound having a KD ratio of 0.1 or more and less than 3 is denoted as C) | C (A compound having a KD ratio of 0.1 or more and less than 3 is denoted as C)
CC[C@H](C)[C@@H]1NC(=O)[C@H](CC(C)C)N(C)C(=O)C[C@@H](C(=O)N2CCOCC2)N(C)C(=O)[C@H](C2CCCC2)N(C)C(=O)C2(CCCC2)NC(=O)[C@@H]2CCCN2C(=O)[C@H](CCc2ccc(C(F)(F)F)c(Cl)c2)NC(=O)CN(C)C(=O)[C@H](Cc2ccc(Cl)cc2)N2CC=CC[C@@H](C2=O)N(C)C(=O)CN(C)C1=O [PP0533] | 9.77 | C (A compound having a KD ratio of 0.1 or more and less than 3 is denoted as C) | C (A compound having a KD ratio of 0.1 or more and less than 3 is denoted as C)
CC[C@H](C)[C@@H]1NC(=O)[C@H](CC(C)C)N(C)C(=O)C[C@@H](C(=O)N2CCOCC2)N(C)C(=O)[C@H](C2CCCC2)N(C)C(=O)C2(CCCC2)NC(=O)[C@@H]2CCCN2C(=O)[C@H](CCc2ccc(C(F)(F)F)c(Cl)c2)NC(=O)CN(C)C(=O)[C@H](Cc2ccc(OC)cc2)N2CCCC[C@@H](C2=O)N(C)C(=O)CN(C)C1=O [PP0534] | 9.80 | B (a compound having 3 or more and less than 10 is denoted as B) | B (a compound having 3 or more and less than 10 is denoted as B)
